Values joined by “and” are separate entries in the source; they are usually repeats but may differ in a detail not shown here. Equal entries are not always repeated. Structures can show the parent of a compound that is named as a salt. Where two headings read alike, the source gives them in different places. Values belong to the molecule of their own block, whether it stands above or below them.
How the values were obtained:
[1] = water, pH=4.0-8.0; cited from earlier work
[2] = water, 25° C.; cited from earlier work
[3] = Distribution coefficient of propiverine-hydrochloride (1-octanol/water, 25° C.); type: physicochemical
Experimental: (§1) The distribution coefficient and the solubility of propiverine-hydrochloride in dependence of the pH value are known (determination of the amount of propiverine in the aqueous phase via HPLC).
Distribution coefficient of propiverine-hydrochloride (1-octanol/water, 25° C.)

[4] = Solubility of propiverine-hydrochloride in water; type: physicochemical; settings: aqueous buffer
Text: as §1
Solubility of propiverine-hydrochloride in water

SMILES: CCCOC(C(=O)OC1CC[N+](C)([O-])CC1)(c1ccccc1)c1ccccc1 (stereo not shown) [Propiverine-N-oxide, propiverine-N-oxide]
solubility [1]: > 127 mg/mL and > 99 mg/mL

SMILES: CCCOC(C(=O)OC1CCN(C)CC1)(c1ccccc1)c1ccccc1 [propiverine, 2,2-diphenyl-2-(1-propoxy)acetic acid(1-methyl-piperid-4-yl)ester]
pKa value [2]: 7.35±0.1

Log [K] ([3]; pH 1.0): 1.3
K (distribution coefficient) ([3]; pH 1.0, mean of three): 22
Log [K] ([3]; pH 5.0): 1.1
K (distribution coefficient) ([3]; pH 5.0, mean of three): 13
Log [K] ([3]; pH 6.0): 2.4
K (distribution coefficient) ([3]; pH 6.0, mean of three): 227
Log [K] ([3]; pH 6.5): 2.9
K (distribution coefficient) ([3]; pH 6.5, mean of three): 884
Log [K] ([3]; pH 6.8): 3.8
K (distribution coefficient) ([3]; pH 6.8, mean of three): 6904
Log [K] ([3]; pH 7.0): 4.0
K (distribution coefficient) ([3]; pH 7.0, mean of three): 10346
Log [K] ([3]; pH 7.2): 4.2
K (distribution coefficient) ([3]; pH 7.2, mean of three): 15438
Log [K] ([3]; pH 7.5): 4.4
K (distribution coefficient) ([3]; pH 7.5, mean of three): 26068
Log [K] ([3]; pH 8.0): 4.7
K (distribution coefficient) ([3]; pH 8.0, mean of three): 52372
solubility ([4]; pH 5.8, 24 ° C.): > 200 mg/mL
solubility ([4]; pH 5.8, 37 ° C.): 368 mg/mL
solubility ([4]; pH 6.0, 24 ° C.): 209 mg/mL
solubility ([4]; pH 7.0, 24 ° C.): 1.2 mg/mL
solubility ([4]; pH 7.2, 24 ° C.): 1.1 mg/mL
SMILES: CCCOC(C(=O)OC1CCN(C)CC1)(c1ccccc1)c1ccccc1 [propiverine-hydrochloride]

Reference: US7943176B2, “Oral dosage form for propiverine or its pharmaceutically acceptable salts with an extended release of the active ingredient” (Apogepha Arzneimittel GmbH, priority 2001, dated 2011)
